Data reported in patent publication US20240148821A1, “PHARMACEUTICAL USE OF CYCLIC PEPTIDE COMPOUND” (CHUGAI SEIYAKU KABUSHIKI KAISHA, priority 2021, published 2024).
Numbered stars: 1 amine (or outer) side, 2 acyl side, 3 side chain; on linkers, the order of the positions; unused ones are H or OH. Bridge positions count the residues as written; N and C are the ends. Square brackets hold non-standard residues; d marks the D form. Peptide text beside a SMILES is read from it. * marks the point of attachment. hPhe(3,5-F2-4-CF3) = N[C@@H](CCc1cc(F)c(C(F)(F)F)c(F)c1)C(=O)O; hPhe(3-Cl-4-CF3) = N[C@@H](CCc1ccc(C(F)(F)F)c(Cl)c1)C(=O)O; NMePhe(4-CF3) = CN[C@@H](Cc1ccc(C(F)(F)F)cc1)C(=O)O; NMeAbu(4,4,4-F3) = CN[C@@H](CC(F)(F)F)C(=O)O; NMePhe(4-Me) = CN[C@@H](Cc1ccc(C)cc1)C(=O)O; NMedβ3hAla = C[C@H](CC(=O)[*:2])N(C)[*:1]; NMeAla(cPent) = CN[C@@H](CC1CCCC1)C(=O)O; NMeGly(cPent) = CN[C@H](C(=O)O)C1CCCC1; NMeCha = CN[C@@H](CC1CCCCC1)C(=O)O; Hyp = O=C(O)[C@@H]1C[C@@H](O)CN1; NMeChg = CN[C@H](C(=O)O)C1CCCCC1; NMeI = CC[C@H](C)[C@H](NC)C(=O)O; NMeD = CN[C@@H](CC(=O)O)C(=O)O; NMeL = CN[C@@H](CC(C)C)C(=O)O; NMeNva = CCC[C@H](NC)C(=O)O; Morpholide = C1CN(*)CCO1; NMeA = CN[C@@H](C)C(=O)O; NMeAib = CNC(C)(C)C(=O)O; Pyrrolidide = C1CCN(*)C1; Ac5c = NC1(C(=O)O)CCCC1; Aze = O=C(O)[C@@H]1CCN1; Ac4c = NC1(C(=O)O)CCC1; Sar = CNCC(=O)O

Tests used:
[1] = system: Human pancreatic cancer cell line AsPC-1 (G12D mutation Kras); test: AsPC-1 cell growth inhibition (AsPC-1 CGI); assay type: cell-based; conditions: read-out: AsPC-1 cell growth inhibition, 50% growth inhibitory concentration (IC50 value); 96 hours, CellTiter-Glo, values classified in ranges
Description: Test compounds were serially dilated with dimethyl sulfoxide, and 200 nL was then dispensed to a U-bottom 96-well plate using Labcyte Echo. […] The cell suspension was dispensed to a. plate containing a test compound at 100 μL per well and incubated at 37° C. in a 5% carbon dioxide gas incubator. 96 hours later, 80 μL of CellTiter-Glo (Promega) was added to each well and fluorescence was measured.

[2] = target: protein-protein interaction between Kras and SOS1 (biotin-tagged human Kras loaded with GDP, His-tagged human SOS1) (Homo sapiens (Human), UniProt P01116, G12D); test: Protein-protein interaction inhibition between Kras and SOS1 (KrasG12D-SOS PPI) using AlphaScreen; assay type: biochemical; conditions: AlphaScreen; biotin-tagged human Kras loaded with GDP, His-tagged human SOS1; read-out: KRAS G12D-SOS PPI IC50;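 also: kras produced in E. coli, Ni-coupled donor beads and streptavidin acceptor beads, excitation 680 nm with emission detected at 520–620 nm via singlet oxygen transfer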

Structure (SMILES) | IC50 [1] [nM] | IC50 [2] [nM]
CCO[C@@H]1C[C@H]2C(=O)NC3(CCC3)C(=O)N(C)[C@@H](C3CCCCC3)C(=O)N(C)[C@H](C(=O)N3CCCC3)CC(=O)N(C)[C@@H](CC(C)C)C(=O)N[C@@H]([C@@H](C)CC)C(=O)N(C)CC(=O)N(C)CC(=O)N(C)[C@@H](CC3CCCCC3)C(=O)N(C)CC(=O)N[C@@H](CCc3cc(F)c(C(F)(F)F)c(F)c3)C(=O)N2C1 [Compound 1366] ([NMeL]I[Sar][Sar][NMeCha][Sar][hPhe(3,5-F2-4-CF3)][Hyp](Et)[Ac4c][NMeChg][NMeD]-Pyrrolidide; lactam N-11) | ≤ 20 | 0.63
CCC[C@H]1C(=O)N[C@@H]([C@@H](C)CC)C(=O)N(C)CC(=O)N(C)CC(=O)N(C)[C@@H](CC2CCCCC2)C(=O)N(C)CC(=O)N[C@@H](CCc2cc(F)c(C(F)(F)F)c(F)c2)C(=O)N2C[C@H](OCC)C[C@H]2C(=O)NC2(CCCC2)C(=O)N(C)[C@@H](C2CCCCC2)C(=O)N(C)[C@H](C(=O)N2CCCC2)CC(=O)N1C [Compound 1367] ([NMeNva]I[Sar][Sar][NMeCha][Sar][hPhe(3,5-F2-4-CF3)][Hyp](Et)[Ac5c][NMeChg][NMeD]-Pyrrolidide; lactam N-11) | ≤ 20 | 0.65
CCO[C@@H]1C[C@H]2C(=O)NC3(CCCC3)C(=O)N(C)[C@@H](C3CCCCC3)C(=O)N(C)[C@H](C(=O)N3CCCC3)CC(=O)N(C)[C@@H](CC(F)(F)F)C(=O)N[C@@H]([C@@H](C)CC)C(=O)N(C)CC(=O)N(C)CC(=O)N(C)[C@@H](CC3CCCCC3)C(=O)N(C)CC(=O)N[C@@H](CCc3ccc(C(F)(F)F)c(Cl)c3)C(=O)N2C1 [Compound 1369] ([NMeAbu(4,4,4-F3)]I[Sar][Sar][NMeCha][Sar][hPhe(3-Cl-4-CF3)][Hyp](Et)[Ac5c][NMeChg][NMeD]-Pyrrolidide; lactam N-11) | ≤ 20 | 0.55
CCO[C@@H]1C[C@H]2C(=O)NC3(CCCC3)C(=O)N(C)[C@@H](C3CCCC3)C(=O)N(C)[C@H](C(=O)N3CCCC3)CC(=O)N(C)[C@@H](CC(C)C)C(=O)N[C@@H]([C@@H](C)CC)C(=O)N(C)CC(=O)N(C)CC(=O)N(C)[C@@H](CC3CCCCC3)C(=O)N(C)CC(=O)N[C@@H](CCc3ccc(C(F)(F)F)c(Cl)c3)C(=O)N2C1 [Compound 1370] ([NMeL]I[Sar][Sar][NMeCha][Sar][hPhe(3-Cl-4-CF3)][Hyp](Et)[Ac5c][NMeGly(cPent)][NMeD]-Pyrrolidide; lactam N-11) | ≤ 20 | 0.6
CC[C@H](C)[C@@H]1NC(=O)[C@H](CC2CCCC2)N(C)C(=O)C[C@@H](C(=O)N2CCOCC2)N(C)C(=O)[C@H]([C@@H](C)CC)N(C)C(=O)C2(CCCC2)NC(=O)[C@@H]2CCCN2C(=O)[C@H](CCc2ccc(C(F)(F)F)c(Cl)c2)NC(=O)CN(C)C(=O)[C@H](Cc2ccc(C(F)(F)F)cc2)N(C)C(=O)[C@@H]2CCN2C(=O)[C@H](C)NC1=O [Compound 1371] ([NMeAla(cPent)]IA[Aze][NMePhe(4-CF3)][Sar][hPhe(3-Cl-4-CF3)]P[Ac5c][NMeI][NMeD]-Morpholide; lactam N-11) | ≤ 20 | 1.6
CC[C@H](C)[C@@H]1NC(=O)[C@H](C)N(C)C(=O)C[C@@H](C)N(C)C(=O)[C@H](CC(C)C)NC(=O)C(C)(C)N(C)C(=O)[C@H](CC(C)C)NC(=O)[C@H](CCc2ccc(C(F)(F)F)c(Cl)c2)NC(=O)CN(C)C(=O)[C@H](CC2CCCCC2)N(C)C(=O)CN(C)C(=O)CN(C)C1=O [Compound 1380] (cyclo(I[Sar][Sar][NMeCha][Sar][hPhe(3-Cl-4-CF3)]L[NMeAib]L[NMedβ3hAla][NMeA])) | > 500 | 16
CC[C@H](C)[C@@H]1NC(=O)[C@H](CC(C)C)N(C)C(=O)C[C@@H](C)N(C)C(=O)[C@H](CC(C)C)NC(=O)C(C)(C)N(C)C(=O)[C@H](CC(C)C)NC(=O)[C@H](CCc2ccc(C(F)(F)F)c(Cl)c2)NC(=O)CN(C)C(=O)[C@H](Cc2ccc(C)cc2)N(C)C(=O)CN(C)C(=O)CN(C)C1=O [Compound 1388] (cyclo(I[Sar][Sar][NMePhe(4-Me)][Sar][hPhe(3-Cl-4-CF3)]L[NMeAib]L[NMedβ3hAla][NMeL])) | > 500 | 10
CC[C@H](C)[C@@H]1NC(=O)[C@H](C)N(C)C(=O)C[C@@H](C)N(C)C(=O)[C@H](CC(C)C)NC(=O)C(C)(C)N(C)C(=O)[C@H](CC(C)C)NC(=O)[C@H](CCc2ccc(C(F)(F)F)c(Cl)c2)NC(=O)CN(C)C(=O)[C@H](Cc2ccc(C(F)(F)F)cc2)N(C)C(=O)CN(C)C(=O)CN(C)C1=O [Compound 1397] (cyclo(I[Sar][Sar][NMePhe(4-CF3)][Sar][hPhe(3-Cl-4-CF3)]L[NMeAib]L[NMedβ3hAla][NMeA])) | > 500 | 6.4
CC[C@H](C)[C@@H]1NC(=O)[C@H](C)N(C)C(=O)C[C@@H](C)N(C)C(=O)[C@H](CC(C)C)NC(=O)C(C)(C)N(C)C(=O)[C@H](CC(C)C)NC(=O)[C@H](CCc2ccc(C(F)(F)F)c(Cl)c2)NC(=O)CN(C)C(=O)[C@H](Cc2ccc(C)cc2)N(C)C(=O)CN(C)C(=O)CN(C)C1=O [Compound 1398] (cyclo(I[Sar][Sar][NMePhe(4-Me)][Sar][hPhe(3-Cl-4-CF3)]L[NMeAib]L[NMedβ3hAla][NMeA])) | > 500 | 6.6
